{
  "source": "the supplement of paper PMC10307832",
  "assay_in_all_cases": "relative viability (nuclei count vs DMSO), 5 days (fraction); higher = more cells survive",
  "key": {"[1]": {"compound": "O=c1ncccn1[C@@H]1O[C@H](CO)[C@@H](O)[C@H]1O [Zebularine] + COc1cccc2cc(-c3nc([C@H]4CC[C@H](C(=O)O)CC4)n4ncnc(N)c34)[nH]c12 [OSI-027] (partner 0.5 µM)", "procedure,_shortened": "(§1)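 The day after seeding in 1536-well plates, lung cancer cell lines were treated by pin tool with a single drug, or with a fixed anchor-drug dose together with five library-drug doses (not always all listed) in √10 steps. After 5 days, a combined fix-and-stain solution (final 0.05% Triton X-100, 1% formaldehyde, 1 ug/ml Hoechst) was added. Nuclei counted on 4× images gave relative viability as treated counts over vehicle counts, reported as the median of duplicate plates.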"}, "[2]": {"compound": "CC(C)CCN1c2nc(Nc3cc(F)c(O)c(F)c3)ncc2N(C)C(=O)C1C [BI-D1870] + CCNC(=O)c1noc(-c2cc(C(C)C)c(O)cc2O)c1-c1ccc(CN2CCOCC2)cc1 [Luminespib] (partner 0.01 µM)", "procedure,_shortened": "as §1"}, "[3]": {"compound": "CC(C)CCN1c2nc(Nc3cc(F)c(O)c(F)c3)ncc2N(C)C(=O)C1C [BI-D1870] + CS(=O)(=O)N1CCN(Cc2cc3nc(-c4cccc5[nH]ncc45)nc(N4CCOCC4)c3s2)CC1 [Pictilisib] (partner 1 µM)", "procedure,_shortened": "as §1"}, "[4]": {"compound": "O=c1ncccn1[C@@H]1O[C@H](CO)[C@@H](O)[C@H]1O [Zebularine] + NC(=O)Nc1cc(-c2cccc(F)c2)sc1C(=O)N[C@H]1CCCNC1 [AZD7762] (partner 0.2 µM)", "procedure,_shortened": "as §1"}},
  "data": [
    {"cell line": "NCI-H838", "values": [
      {"measurement": "relative viability", "setting": "[1]; first compound 1 µM", "value": 0.405},
      {"measurement": "relative viability", "setting": "[1]; first compound 3.162 µM", "value": 0.377},
      {"measurement": "relative viability", "setting": "[1]; first compound 10 µM", "value": 0.355},
      {"measurement": "relative viability", "setting": "[1]; first compound 31.62 µM", "value": 0.348},
      {"measurement": "relative viability", "setting": "[1]; first compound 100 µM", "value": 0.258},
      {"measurement": "relative viability", "setting": "[2]; first compound 0.04 µM", "value": 0.309},
      {"measurement": "relative viability", "setting": "[2]; first compound 0.1265 µM", "value": 0.343},
      {"measurement": "relative viability", "setting": "[2]; first compound 0.4 µM", "value": 0.236},
      {"measurement": "relative viability", "setting": "[2]; first compound 1.265 µM", "value": 0.295},
      {"measurement": "relative viability", "setting": "[2]; first compound 4 µM", "value": 0.319},
      {"measurement": "relative viability", "setting": "[3]; first compound 0.04 µM", "value": 0.442},
      {"measurement": "relative viability", "setting": "[3]; first compound 0.1265 µM", "value": 0.421},
      {"measurement": "relative viability", "setting": "[3]; first compound 0.4 µM", "value": 0.529},
      {"measurement": "relative viability", "setting": "[3]; first compound 1.265 µM", "value": 0.498},
      {"measurement": "relative viability", "setting": "[3]; first compound 4 µM", "value": 0.574},
      {"measurement": "relative viability", "setting": "[4]; first compound 1 µM", "value": 0.934},
      {"measurement": "relative viability", "setting": "[4]; first compound 3.162 µM", "value": 0.977},
      {"measurement": "relative viability", "setting": "[4]; first compound 10 µM", "value": 0.764},
      {"measurement": "relative viability", "setting": "[4]; first compound 31.62 µM", "value": 0.861},
      {"measurement": "relative viability", "setting": "[4]; first compound 100 µM", "value": 0.738}
    ]},
    {"cell line": "NCI-H1355", "values": [
      {"measurement": "relative viability", "setting": "[1]; first compound 1 µM", "value": 0.435},
      {"measurement": "relative viability", "setting": "[1]; first compound 3.162 µM", "value": 0.388},
      {"measurement": "relative viability", "setting": "[1]; first compound 10 µM", "value": 0.357},
      {"measurement": "relative viability", "setting": "[1]; first compound 31.62 µM", "value": 0.494},
      {"measurement": "relative viability", "setting": "[1]; first compound 100 µM", "value": 0.381},
      {"measurement": "relative viability", "setting": "[2]; first compound 0.04 µM", "value": 0.802},
      {"measurement": "relative viability", "setting": "[2]; first compound 0.1265 µM", "value": 0.675},
      {"measurement": "relative viability", "setting": "[2]; first compound 0.4 µM", "value": 0.649},
      {"measurement": "relative viability", "setting": "[2]; first compound 1.265 µM", "value": 0.737},
      {"measurement": "relative viability", "setting": "[2]; first compound 4 µM", "value": 0.573},
      {"measurement": "relative viability", "setting": "[3]; first compound 0.04 µM", "value": 0.433},
      {"measurement": "relative viability", "setting": "[3]; first compound 0.1265 µM", "value": 0.365},
      {"measurement": "relative viability", "setting": "[3]; first compound 0.4 µM", "value": 0.398},
      {"measurement": "relative viability", "setting": "[3]; first compound 1.265 µM", "value": 0.504},
      {"measurement": "relative viability", "setting": "[3]; first compound 4 µM", "value": 0.323},
      {"measurement": "relative viability", "setting": "[4]; first compound 1 µM", "value": 0.722},
      {"measurement": "relative viability", "setting": "[4]; first compound 3.162 µM", "value": 0.8},
      {"measurement": "relative viability", "setting": "[4]; first compound 10 µM", "value": 0.543},
      {"measurement": "relative viability", "setting": "[4]; first compound 31.62 µM", "value": 0.588},
      {"measurement": "relative viability", "setting": "[4]; first compound 100 µM", "value": 0.338}
    ]},
    {"cell line": "NCI-H1395", "values": [
      {"measurement": "relative viability", "setting": "[1]; first compound 1 µM", "value": 0.65},
      {"measurement": "relative viability", "setting": "[1]; first compound 3.162 µM", "value": 0.58},
      {"measurement": "relative viability", "setting": "[1]; first compound 10 µM", "value": 0.553},
      {"measurement": "relative viability", "setting": "[1]; first compound 31.62 µM", "value": 0.531},
      {"measurement": "relative viability", "setting": "[1]; first compound 100 µM", "value": 0.429},
      {"measurement": "relative viability", "setting": "[2]; first compound 0.04 µM", "value": 0.623},
      {"measurement": "relative viability", "setting": "[2]; first compound 0.1265 µM", "value": 0.532},
      {"measurement": "relative viability", "setting": "[2]; first compound 0.4 µM", "value": 0.675},
      {"measurement": "relative viability", "setting": "[2]; first compound 1.265 µM", "value": 0.504},
      {"measurement": "relative viability", "setting": "[2]; first compound 4 µM", "value": 0.521},
      {"measurement": "relative viability", "setting": "[3]; first compound 0.04 µM", "value": 0.684},
      {"measurement": "relative viability", "setting": "[3]; first compound 0.1265 µM", "value": 0.588},
      {"measurement": "relative viability", "setting": "[3]; first compound 0.4 µM", "value": 0.587},
      {"measurement": "relative viability", "setting": "[3]; first compound 1.265 µM", "value": 0.673},
      {"measurement": "relative viability", "setting": "[3]; first compound 4 µM", "value": 0.507},
      {"measurement": "relative viability", "setting": "[4]; first compound 1 µM", "value": 0.402},
      {"measurement": "relative viability", "setting": "[4]; first compound 3.162 µM", "value": 0.372},
      {"measurement": "relative viability", "setting": "[4]; first compound 10 µM", "value": 0.397},
      {"measurement": "relative viability", "setting": "[4]; first compound 31.62 µM", "value": 0.37},
      {"measurement": "relative viability", "setting": "[4]; first compound 100 µM", "value": 0.435}
    ]},
    {"cell line": "NCI-H1437", "values": [
      {"measurement": "relative viability", "setting": "[1]; first compound 1 µM", "value": 0.926},
      {"measurement": "relative viability", "setting": "[1]; first compound 3.162 µM", "value": 0.933},
      {"measurement": "relative viability", "setting": "[1]; first compound 10 µM", "value": 0.761},
      {"measurement": "relative viability", "setting": "[1]; first compound 31.62 µM", "value": 0.859},
      {"measurement": "relative viability", "setting": "[1]; first compound 100 µM", "value": 0.611},
      {"measurement": "relative viability", "setting": "[2]; first compound 0.04 µM", "value": 1.17},
      {"measurement": "relative viability", "setting": "[2]; first compound 0.1265 µM", "value": 1.06},
      {"measurement": "relative viability", "setting": "[2]; first compound 0.4 µM", "value": 1.11},
      {"measurement": "relative viability", "setting": "[2]; first compound 1.265 µM", "value": 1.11},
      {"measurement": "relative viability", "setting": "[2]; first compound 4 µM", "value": 0.855},
      {"measurement": "relative viability", "setting": "[3]; first compound 0.04 µM", "value": 0.418},
      {"measurement": "relative viability", "setting": "[3]; first compound 0.1265 µM", "value": 0.348},
      {"measurement": "relative viability", "setting": "[3]; first compound 0.4 µM", "value": 0.415},
      {"measurement": "relative viability", "setting": "[3]; first compound 1.265 µM", "value": 0.408},
      {"measurement": "relative viability", "setting": "[3]; first compound 4 µM", "value": 0.389},
      {"measurement": "relative viability", "setting": "[4]; first compound 1 µM", "value": 1.16},
      {"measurement": "relative viability", "setting": "[4]; first compound 3.162 µM", "value": 1.21},
      {"measurement": "relative viability", "setting": "[4]; first compound 10 µM", "value": 0.947},
      {"measurement": "relative viability", "setting": "[4]; first compound 31.62 µM", "value": 1.16},
      {"measurement": "relative viability", "setting": "[4]; first compound 100 µM", "value": 0.914}
    ]}
  ]
}
